ChEMBL document CHEMBL4699640, “l-Tryptophan Induces a Marine-Derived Fusarium sp. to Produce Indole Alkaloids with Activity against the Zika Virus” (J Nat Prod, 2020)

Tested on: A549
Experiment: Cytotoxicity against human A549 cells assessed as reduction in cell viability by MTT assay
Assay type: cell-based
Details: not given; call rule not given here

O=C(c1c[nH]c2ccccc12)c1nccc2c1[nH]c1ccccc12 and CC(C)=CCC[C@]1(C)[C@@H](O)CC[C@@]2(C)[C@H]1CC[C@H]1Cc3c([nH]c4ccccc34)[C@@]12C [EMINDOLE SB] are within 1.5-fold of each other in IC50: 6.3 µM for the first, 4.4 µM for the second.

Tested on: Zika virus
Experiment: Antiviral activity against Zika virus Z16019 infected in human A549 cells assessed as reduction in viral titer preincubated for 1 hr followed by compound washout and subsequent compound addition without virus and measured after 48 hrs by plaque assay
Assay type: functional, organism-based
Details: Zika virus, Z16019, A549; read-out: EC50

Compared with O=C(C(=O)c1c[nH]c2ccccc12)c1c[nH]c2ccccc12, CC(=O)C(C)(c1c[nH]c2ccccc12)c1c[nH]c2ccccc12 is 3.6-fold higher in EC50: 5 µM for the first, 18 µM for the second.

Going from C#C[C@@]1(O)[C@H](O)[C@@H](CO)O[C@H]1n1ccc2c(N)ncnc21 to CC(C)=C[C@H]1C[C@]2(C)[C@H](CC[C@@]3(C)[C@H]2CC[C@H]2Cc4c([nH]c5ccccc45)[C@@]23C)O1, the EC50 falls from 15 µM to 4.2 µM (3.6-fold).

Going from CC(C)=C[C@H]1C[C@]2(C)[C@H](CC[C@@]3(C)[C@H]2CC[C@H]2CC(=O)c4ccccc4NC(=O)O[C@@]23C)O1 to CC(C)=C[C@H]1C[C@]2(C)[C@H](CC[C@@]3(C)[C@H]2CC[C@H]2CC(=O)c4ccccc4NC(=O)[C@@]23C)O1 [ASPORYZIN A], the EC50 rises from 12 µM to 18 µM (1.5-fold).

First: O=C1c2ccccc2NC1(c1c[nH]c2ccccc12)c1c[nH]c2ccccc12
Second: O=C(Cc1c[nH]c2ccccc12)OCCc1c[nH]c2ccccc12
The EC50 of the first is 1.7-fold lower: 22 µM for the first, 38 µM for the second.

Compared with CC(=O)OCC(=O)O[C@H]1CC[C@@]2(C)[C@@H](CC[C@H]3Cc4c([nH]c5ccccc45)[C@@]32C)[C@]1(C)CCC=C(C)C, COC(=O)Cc1c(-c2cc3ccccc3[nH]2)[nH]c2ccccc12 is 6.7-fold higher in EC50: 7.5 µM for the first, 50 µM for the second. The first is the more potent here.

Same assay, conditions: a549

In the case of Nc1ccccc1CC(c1c[nH]c2ccccc12)c1c[nH]c2ccccc12, the EC50 is reported as “Not Active”.
With C[S+]([O-])CCC(c1c[nH]c2ccccc12)c1c[nH]c2ccccc12 (stereo unspecified) the EC50 was “Not Active”.
CC(C)=CCC[C@]1(C)[C@@H](O)CC[C@@]2(C)[C@H]1CC[C@H]1Cc3c([nH]c4ccccc34)[C@@]12C [EMINDOLE SB] was tested, and the EC50 was “Not Active”.

Tested on: MDA-MB-231
Experiment: Cytotoxicity against human MDA-MB-231 cells assessed as reduction in cell viability by MTT assay
Assay type: cell-based
Details: not given

CC(C)=CCC[C@]1(C)[C@@H](O)CC[C@@]2(C)[C@H]1CC[C@H]1Cc3c([nH]c4ccccc34)[C@@]12C [EMINDOLE SB] showed an IC50 of 3.2 µM.
